Data on 2 molecules can be found in patent publication US6043212A, “Recombinant C140 receptor, its agonists and antagonists, and nucleic acids encoding the receptor” (COR Therapeutics, Inc., priority 1995, dated 2000).

Positions count from the first letter of the chain named. Peptide text beside a SMILES is read from it.

Assay [1] addresses T1, mutant C140 receptor 35Pro (serine-35 replaced with proline) (Mus musculus, UniProt P55086, S39P).
T1 construct: Site-directed mutagenesis was employed to construct mutant receptors in the pSG-5; expressed in transfected cells; host or cells: Xenopus laevis oocytes injected with capped cRNA
T1 sequence (P55086 32-399 S39P limits assumed): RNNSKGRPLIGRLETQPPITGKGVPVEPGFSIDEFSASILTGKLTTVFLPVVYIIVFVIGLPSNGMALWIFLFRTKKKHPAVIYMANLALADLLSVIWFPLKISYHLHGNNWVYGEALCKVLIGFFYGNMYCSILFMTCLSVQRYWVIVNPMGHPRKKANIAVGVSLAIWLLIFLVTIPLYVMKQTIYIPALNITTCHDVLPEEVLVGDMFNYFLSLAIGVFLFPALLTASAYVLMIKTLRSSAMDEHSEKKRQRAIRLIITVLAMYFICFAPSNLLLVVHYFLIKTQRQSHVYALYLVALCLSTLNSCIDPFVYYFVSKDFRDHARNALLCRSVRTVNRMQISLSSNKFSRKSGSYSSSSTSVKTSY
Description: 45Ca release by Xenopus oocytes expressing mutant C140 receptor 35Pro. The assay is classed as cell-based. The conditions noted are these: 35Pro receptor. From the text: (§1) Both native and mutant C140 receptors were produced in oocytes and activated with a peptide mimicking the new amino-terminus", or by the proteolytic enzyme trypsin (which cleaves the extracellular region). Native receptors were produced by cloning the coding region of the receptor gene, using the polymerase chain reaction, into the expression vector pSG-5 (Green, S. et al., Nucleic Acid Res (1988) 16:369). The orientation and integrity of the cloned coding region was verified by determining the nucleotide sequence with the Sanger chain-termination method. Site-directed mutagenesis was employed to construct mutant receptors in the pSG-5. […]
(§2) Oocytes from Xenopus laevis were harvested and prepared using published techniques (Coleman, A., in Hames, B. D., and Higgins, S. J., eds, Transcription and Translation: A Practical Approach, IRL Press, pp. 271-302; Williams, J. A., et al. Proc Natl Acad Sci USA (1988) 85:4939-4943]. To remove follicular cells, oocytes were incubated for 1.5 h with shaking in calcium-free Barth's containing 2 mg/ml each of collagenase 1A and hyaluronidase 1S. The oocytes were then washed five times in regular Barth's and incubated at 18° C. in Barth's medium containing 100 U/ml penicillin, 100 μg/ml streptomycin, and 2.5 mM sodium pyruvate. […] The harvested medium was analyzed by scintillation counting. […]

Assay [2] addresses T2, mutant C140 receptor 35His (serine-35 replaced with histidine) (Mus musculus, UniProt P55086, S39H).
T2 construct: Site-directed mutagenesis was employed to construct mutant receptors in the pSG-5; expressed in transfected cells; host or cells: Xenopus laevis oocytes injected with capped cRNA
T2 sequence (P55086 32-399 S39H limits assumed): T1 sequence (P55086 32-399 S39P limits assumed) with P8H
Briefly: 45Ca release by Xenopus oocytes expressing mutant C140 receptor 35His. Format: cell-based. Particulars: 35His receptor.
From the text: as §1, §2

The nature of assay [3]: Hypotensive activity: arterial pressure after injection into rat femoral vein. The assay is classed as in vivo. Particulars: FIG. 7. On the procedure:
The C140 agonist SLIGRL (SEQ ID NO: 23) was injected in 0.2 ml buffer at various concentrations into rat femoral vein and the arterial pressure was monitored.

The test system of a further assay is rat femoral vein. Briefly: Vasodilation of isolated rat femoral vein contracted with PGF2α (organ bath). Particulars: PGF2α 3×10^-5 M, test substance 10^-5 M. The procedure:
This effect was also shown by observing vasodilation as a result of stimulation of the rat femoral vein with the above agonist. Adult Sprague-Dawley rats were killed by exsanguination during diethylether anesthesia and the femoral vein was removed and dissected free from fat and connective tissue. Circular preparations of the vein were mounted in an organ bath (5 ml) on two L-formed metal holders (0.2 mm diameter). One of the metal holders was screwed into one of the levers of a Grass FTO C force displacement transducer. The bathing liquid was Kreb's Ringer solution containing 118 mM NaCl, 4.7 mM KCl, 2.5 mM CaCl2, 1.2 MM MgSO4, 24.8 mM NaHCO3, 1.2 mM KH2 PO4 and 5.6 mM glucose. The bathing fluid was continuously treated with 88.5% oxygen-11.5% CO2; the temperature was held at 37° C. The endothelium was removed by bubbling CO2 through the vessels. The basal tension was between 7.5 and 12 mN. The preparations were equilibrated for at least 1 hr before application of agonist and control substances.

Setting [4] is: peptide at 100 μM, same oocytes after trypsin stimulation.
[5] abbreviates: trypsin at 300 pM, increase compared to water-injected oocytes.

`CC[C@H](C)[C@H](NC(=O)[C@H](CC(C)C)NC(=O)[C@@H](N)CO)C(=O)NCC(=O)N[C@@H](CCCNC(=N)N)C(=O)N[C@@H](CC(C)C)C(=O)O` [SLIGRL] (H-SLIGRL-OH): the “Fold increase in 45Ca” value in assay [1] (setting [4]) and in assay [2] (setting [4]) was 23 fold throughout. Also, the figures for the “Effect on arterial blood pressure” value in assay [3] (0.2 ml buffer at 0.1 mM into femoral vein) and in assay [3] (0.2 ml buffer at 1 mM into femoral vein) were “appreciable decrease in blood pressure” and “larger decreases”, respectively. Besides, the “Effect on contraction induced by PGF2α” value in the assay on rat femoral vein (endothelium present, FIG. 8a) is on record as “relaxed”; in the assay on rat femoral vein (endothelium removed, FIG. 8b), “not counteracted”.

On to trypsin, for which the “Fold increase in 45Ca” value in assay [1] (setting [5]) and in assay [2] (setting [5]) was 0 fold in each case.
